Source: US20220411388A1, “SUBSTITUTED IMIDAZOLE CARBOXAMIDES AND THEIR USE IN THE TREATMENT OF MEDICAL DISORDERS” (Bial - R&D Investments, S.A., priority 2019, published 2022)
Converted amounts (≈) assume the structure as drawn.

Key:
acid ceramidase (hACR) = target: T1, acid ceramidase (hACR) (Homo sapiens, UniProt Q13510); test: Acid ceramidase inhibition, biochemical fluorescent assay with cell lysates overexpressing acid ceramidase (substrate Rbm14-12); conditions: cell lysate, 1 hr preincubation at RT, pH 4.5, Rbm14-12 6.3 μM; read-out: IC50 hACR
T1 construct: expressed in transfected cells
T1 sequence (Q13510 22-395): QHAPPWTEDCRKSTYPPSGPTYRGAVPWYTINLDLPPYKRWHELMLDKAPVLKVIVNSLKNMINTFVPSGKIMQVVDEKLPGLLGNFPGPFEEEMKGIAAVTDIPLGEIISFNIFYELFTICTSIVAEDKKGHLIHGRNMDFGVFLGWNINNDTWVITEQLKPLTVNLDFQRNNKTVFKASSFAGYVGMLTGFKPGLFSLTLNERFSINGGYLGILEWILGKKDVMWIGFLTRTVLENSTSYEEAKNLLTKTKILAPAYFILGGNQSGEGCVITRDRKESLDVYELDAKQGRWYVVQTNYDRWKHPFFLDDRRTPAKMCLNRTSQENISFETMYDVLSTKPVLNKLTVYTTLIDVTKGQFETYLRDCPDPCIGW
Procedure: The ability of exemplary compounds to inhibit acid ceramidase was measured.
Cell lysates overexpressing acid ceramidase were used as the enzyme source for compound potency determination in a biochemical fluorescent assay. Briefly, compounds were preincubated with 10 μg protein of cell lysates in a dose-response manner for 1 hr at RT in the assay buffer containing 25 mM NaAC and 100 mM NaCl, pH 4.5. […] The samples were incubated with the stopping buffer at RT for 1 hr to allow the fluorescent product to be formed. […] Data were collected and used to determine the IC50 values of compounds by curve fitting to the four-parameter inhibition equation.

[1] = Compound solubility in water; format: physicochemical

| SMILES | IC50 (acid ceramidase (hACR)) | solubility [1] |
| --- | --- | --- |
| COc1nc(C2(C)CCC(=O)N2C)cn1C(=O)NCCC(C)C (stereo not shown) [Example 82, 4-(1,2-Dimethyl-5-oxopyrrolidin-2-yl)-N-iso-pentyl-2-methoxy-1H-imidazole-1-carboxamide] | > 1000 nM | 31 µg/mL (≈ 96.2 µM) |
| CN1CCN(C2CCN(c3ncccc3-c3cn(C(=O)NCCC4CC4)cn3)CC2)CC1 [Example 55, N-(2-Cyclopropylethyl)-4-(2-(4-(4-methylpiperazin-1-yl)piperidin-1-yl)pyridin-3-yl)-1H-imidazole-1-carboxamide] | 200 to 1000 nM | 41.5 µg/mL (≈ 94.8 µM) |
| Cc1cn(C(=O)NCC#CCc2ccccc2)c(OCCN2CCN(C)CC2)n1 [Example 201, 4-Methyl-2-(2-(4-methylpiperazin-1-yl)ethoxy)-N-(4-phenylbut-2-ynyl)-1H-imidazole-1-carboxamide] | < 200 nM | 39 µg/mL (≈ 98.6 µM) |
| CN(C)Cc1ccc(-c2cn(C(=O)NCCc3ccccc3)cn2)cc1 [Example 34, 4-(4-((Dimethylamino)methyl)phenyl)-N-phenethyl-1H-imidazole-1-carboxamide] | < 200 nM | 25.6 µg/mL (≈ 73.5 µM) |
| COc1nccn1C(=O)NCCCc1ccccc1 [Example 124, 2-methoxy-N-(3-phenylpropyl)-1H-imidazole-1-carboxamide] | < 200 nM | 20 µg/mL (≈ 77.1 µM) |
| COc1nc(-c2cccnc2)cn1C(=O)NCCC1CC1 [Example 53, N-(2-Cyclopropylethyl)-2-methoxy-4-(pyridin-3-yl)-1H-imidazole-1-carboxamide] | > 1000 nM | 26.5 µg/mL (≈ 92.5 µM) |
| CC(C)CCNC(=O)n1cnc(-c2nccs2)c1 [Example 50, N-iso-Pentyl-4-(thiazol-2-yl)-1H-imidazole-1-carboxamide] | 200 to 1000 nM | 23.5 µg/mL (≈ 88.9 µM) |
| Cc1cn(C(=O)NC2CC2)c(OC2CCC(F)(F)CC2)n1 [Example 183, N-Cyclopropyl-2-(4,4-difluorocyclohexyloxy)-4-methyl-1H-imidazole-1-carboxamide] | 200 to 1000 nM | 31 µg/mL (≈ 104 µM) |
| COc1nc(-c2coc(C(C)(C)C)n2)cn1C(=O)NCCC1CC1 [Example 103, 4-(2-(tert-Butyl)oxazol-4-yl)-N-(2-cyclopropylethyl)-2-methoxy-1H-imidazole-1-carboxamide] | > 1000 nM | 6 µg/mL (≈ 18.1 µM) |
| COc1nc(Cl)cn1C(=O)NCCCC(F)(F)F [Example 168, 4-Chloro-2-methoxy-N-(4,4,4-trifluorobutyl)-1H-imidazole-1-carboxamide] | < 200 nM | 34 µg/mL (≈ 119 µM) |
| COCCOc1nc(C(C)(C)C)cn1C(=O)NCCC(C)C [Example 117, 4-(tert-Butyl)-N-iso-pentyl-2-(2-methoxyethoxy)-1H-imidazole-1-carboxamide] | 200 to 1000 nM | 10 µg/mL (≈ 32.1 µM) |
| CC(CCNC(=O)n1cnc(-c2cccnc2)c1)c1ccccc1 (stereo not shown) [Example 16, N-(3-Phenylbutyl)-4-(pyridin-3-yl)-1H-imidazole-1-carboxamide] | < 200 nM | 3.8 µg/mL (≈ 11.9 µM) |
| COc1nc(C2CCCC2)cn1C(=O)NCCCOc1ccccc1 [Example 105, 4-Cyclopentyl-2-methoxy-N-(3-phenoxypropyl)-1H-imidazole-1-carboxamide] | < 200 nM | 14 µg/mL (≈ 40.8 µM) |
| N#Cc1ccc(-c2cn(C(=O)NCCc3ccccc3)cn2)cn1 [Example 28, 4-(6-Cyanopyridin-3-yl)-N-phenethyl-1H-imidazole-1-carboxamide] | < 200 nM | 5 µg/mL (≈ 15.8 µM) |
| CCC1(NC(=O)n2cc(C(C)(C)C)nc2OC)CC1 [Example 129, 4-(tert-Butyl)-N-(1-ethylcyclopropyl)-2-methoxy-1H-imidazole-1-carboxamide] | > 1000 nM | 16 µg/mL (≈ 60.3 µM) |
| CC(C)CC(C)NC(=O)n1cnc(C(C)(C)C)c1 (stereo not shown) [Example 79, 4-(tert-Butyl)-N-(4-methylpentan-2-yl)-1H-imidazole-1-carboxamide] | < 200 nM | 11 µg/mL (≈ 43.8 µM) |
| Cc1cn(C(=O)NCCC(C)C)c(Oc2ccccc2)n1 [Example 146, N-iso-Pentyl-4-methyl-2-phenoxy-1H-imidazole-1-carboxamide] | < 200 nM | 19 µg/mL (≈ 66.1 µM) |
| Cc1nc(-c2cccnc2)cn1C(=O)NCCC(C)C [Example 49, N-iso-Pentyl-2-methyl-4-(pyridin-3-yl)-1H-imidazole-1-carboxamide] | < 200 nM | 7.9 µg/mL (≈ 29 µM) |
| Cc1cnc(OC(C)C)n1C(=O)NCCc1ccccc1 [Example 150, 2-iso-Propoxy-5-methyl-N-phenethyl-1H-imidazole-1-carboxamide] | < 200 nM | 5 µg/mL (≈ 17.4 µM) |

| SMILES | IC50 (acid ceramidase (hACR)) | solubility [1] |
| --- | --- | --- |
| COc1nc(C2CCCC2)cn1C(=O)NCCC(C)C [Example 75, 4-Cyclopentyl-N-iso-pentyl-2-methoxy-1H-imidazole-1-carboxamide] | 200 to 1000 nM | 13 µg/mL (≈ 46.5 µM) |
| CC(C)(C)CCNC(=O)n1cnc(-c2cccnc2)c1 [Example 45, N-(3,3-Dimethylbutyl)-4-(pyridin-3-yl)-1H-imidazole-1-carboxamide] | 200 to 1000 nM | 12.1 µg/mL (≈ 44.4 µM) |
| CN(C)Cc1cncc(-c2cn(C(=O)NCCc3ccccc3)cn2)c1 [Example 44, 4-(5-((Dimethylamino)methyl)pyridin-3-yl)-N-phenethyl-1H-imidazole-1-carboxamide] | 200 to 1000 nM | 30.8 µg/mL (≈ 88.1 µM) |
| COc1nc(C(C)(C)C)cn1C(=O)NC1CC1 [Example 113, 4-(tert-Butyl)-N-cyclopropyl-2-methoxy-1H-imidazole-1-carboxamide] | 200 to 1000 nM | 24 µg/mL (≈ 101 µM) |
| COc1nc(C)c(C)n1C(=O)NCCc1ccccc1 [Example 170, 2-Methoxy-4,5-dimethyl-N-phenethyl-1H-imidazole-1-carboxamide] | < 200 nM | 10 µg/mL (≈ 36.6 µM) |
| COc1ccc(-c2cn(C(=O)NCCC3(C(F)(F)F)CC3)c(OC)n2)cn1 [Example 94, 2-Methoxy-4-(6-methoxypyridin-3-yl)-N-(2-(1-(trifluoromethyl)cyclopropyl)ethyl)-1H-imidazole-1-carboxamide] | 200 to 1000 nM | 6 µg/mL (≈ 15.6 µM) |
| COc1nc(C)cn1C(=O)NCCCn1ccc(C(C)(C)C)n1 [Example 179, N-(3-(3-(tert-Butyl)-1H-pyrazol-1-yl)propyl)-2-methoxy-4-methyl-1H-imidazole-1-carboxamide] | < 200 nM | 22 µg/mL (≈ 68.9 µM) |
| O=C(NCCCC1(C(F)(F)F)CC1)n1ccnc1Oc1ccccc1 [Example 177, 2-Phenoxy-N-(3-(1-(trifluoromethyl)cyclopropyl)propyl)-1H-imidazole-1-carboxamide] | < 200 nM | 8 µg/mL (≈ 22.6 µM) |
| Cc1nc(-c2ccccc2)cn1C(=O)NCCc1ccccc1 [Example 7, 2-Methyl-N-phenethyl-4-phenyl-1H-imidazole-1-carboxamide] | < 200 nM | 1.1 µg/mL (≈ 3.6 µM) |
| COc1nc(C(C)(C)C)cn1C(=O)NCCCCC1CC1 [Example 97, 4-(tert-Butyl)-N-(4-cyclopropylbutyl)-2-methoxy-1H-imidazole-1-carboxamide] | < 200 nM | 3 µg/mL (≈ 10.2 µM) |
| Cc1cn(C(=O)NCCc2ccccc2)c(OCCN2CCN(C)CC2)n1 [Example 190, 4-Methyl-2-(2-(4-methylpiperazin-1-yl)ethoxy)-N-phenethyl-1H-imidazole-1-carboxamide] | < 200 nM | 39 µg/mL (≈ 105 µM) |
| CC(C)CCNC(=O)n1cnc(-c2cncs2)c1 [Example 51, N-iso-Pentyl-4-(thiazol-5-yl)-1H-imidazole-1-carboxamide] | 200 to 1000 nM | 25.1 µg/mL (≈ 94.9 µM) |
| COc1nc(C)cn1C(=O)NC1CCCC(F)(F)C1 (stereo not shown) [Example 153, N-(3,3-difluorocyclohexyl)-2-methoxy-4-methyl-1H-imidazole-1-carboxamide] | > 1000 nM | 29 µg/mL (≈ 106 µM) |
| COc1nc(C)cn1C(=O)NCCc1ccccc1 [Example 143, 2-Methoxy-4-methyl-N-phenethyl-1H-imidazole-1-carboxamide] | < 200 nM | 27 µg/mL (≈ 104 µM) |
| COc1nc(C2CCCC2)cn1C(=O)NC1CC1 [Example 126, 4-Cyclopentyl-N-cyclopropyl-2-methoxy-1H-imidazole-1-carboxamide] | 200 to 1000 nM | 13 µg/mL (≈ 52.1 µM) |
| COc1nc(C(C)(C)C)cn1C(=O)NCCCc1ccccc1 [Example 101, 4-(tert-Butyl)-2-methoxy-N-(3-phenylpropyl)-1H-imidazole-1-carboxamide] | < 200 nM | 10 µg/mL (≈ 31.7 µM) |
| Cc1nc(-c2cn(C(=O)NCCC3CC3)cn2)co1 [Example 73, N-(2-Cyclopropylethyl)-4-(2-methyloxazol-4-yl)-1H-imidazole-1-carboxamide] | 200 to 1000 nM | 26 µg/mL (≈ 99.9 µM) |
| COc1nc(C)cn1C(=O)NCC#CCC1(C(F)(F)F)CC1 [Example 182, 2-Methoxy-4-methyl-N-(4-(1-(trifluoromethyl)cyclopropyl)but-2-ynyl)-1H-imidazole-1-carboxamide] | < 200 nM | 25 µg/mL (≈ 79.3 µM) |
| O=C(NCCc1ccccc1)n1cnc(-c2ccncc2)c1 [Example 6, N-Phenethyl-4-(pyridin-4-yl)-1H-imidazole-1-carboxamide] | > 1000 nM | 23.9 µg/mL (≈ 81.8 µM) |
